According to ChEMBL document CHEMBL1123940, “Carbamate ester derivatives as potential prodrugs of the presynaptic dopamine autoreceptor agonist (-)-3-(3-hydroxyphenyl)-N-propylpiperidine” (J Med Chem, 1987):

Biological target: Acetylcholinesterase (Homo sapiens, UniProt P22303)
Assay: Inhibitory activity against acetylcholinesterase in human blood
Type: tissue-based

Sequence of Acetylcholinesterase (P22303 whole entry): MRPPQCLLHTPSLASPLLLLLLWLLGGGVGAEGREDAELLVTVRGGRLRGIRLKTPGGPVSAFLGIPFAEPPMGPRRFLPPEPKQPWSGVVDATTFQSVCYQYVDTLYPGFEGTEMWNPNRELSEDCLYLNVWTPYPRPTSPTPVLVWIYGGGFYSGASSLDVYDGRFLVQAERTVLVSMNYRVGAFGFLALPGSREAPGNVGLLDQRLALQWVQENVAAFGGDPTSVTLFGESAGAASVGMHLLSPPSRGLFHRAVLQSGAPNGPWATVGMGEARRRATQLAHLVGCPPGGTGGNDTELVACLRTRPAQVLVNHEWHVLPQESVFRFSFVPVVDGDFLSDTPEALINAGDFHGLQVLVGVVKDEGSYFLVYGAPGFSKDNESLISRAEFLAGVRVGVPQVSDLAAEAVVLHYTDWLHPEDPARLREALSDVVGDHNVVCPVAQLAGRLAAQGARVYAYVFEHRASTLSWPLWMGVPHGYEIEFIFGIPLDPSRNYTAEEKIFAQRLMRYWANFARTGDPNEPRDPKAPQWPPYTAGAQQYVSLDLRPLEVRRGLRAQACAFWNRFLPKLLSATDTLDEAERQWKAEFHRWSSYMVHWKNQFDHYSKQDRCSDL

In the case of `CCCN1CCCC(c2cccc(OC(=O)NC(C)C)c2)C1` (stereo unspecified), the IC50 is reported as 10 µM.
